Measurements as given in ChEMBL document CHEMBL3217455, “Peptides: minimal drug surrogates to interrogate and interfere with protein function” (Medchemcomm, 2013).
Where a SMILES comes first, the peptide text is derived from it.

Target: T1, Rhombotin-2 (Homo sapiens, UniProt P25791)
T1 sequence (P25791 whole entry): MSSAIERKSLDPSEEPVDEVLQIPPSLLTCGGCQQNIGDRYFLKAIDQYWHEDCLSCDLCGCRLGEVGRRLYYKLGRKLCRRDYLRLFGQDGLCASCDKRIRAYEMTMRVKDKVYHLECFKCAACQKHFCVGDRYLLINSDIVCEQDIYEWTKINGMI
Assay: Binding affinity to GST-tagged LMO2 (unknown origin) by surface plasmon resonance analysis

- Kd: 29 nM
Compound: CC[C@H](C)[C@H](NC(=O)[C@@H](NC(=O)[C@H](Cc1cnc[nH]1)NC(=O)[C@H](CC(C)C)NC(=O)[C@H](CCCNC(=N)N)NC(=O)[C@H](CO)NC(=O)[C@H](CCC(N)=O)NC(=O)[C@@H](N)CO)[C@@H](C)O)C(=O)N[C@@H](CC(C)C)C(=O)N[C@@H](CS)C(=O)N[C@@H](Cc1cnc[nH]1)C(=O)N[C@@H](CCC(=O)O)C(=O)N[C@@H](CS)C(=O)N[C@H](C(=O)N[C@H](C(=O)N[C@@H](CO)C(=O)N[C@@H](Cc1ccccc1)C(=O)N[C@@H](CC(C)C)C(=O)N[C@@H](CO)C(=O)N[C@@H](CC(C)C)C(=O)O)[C@@H](C)O)C(C)C (H-SQSRLHTILCHECVTSFLSL-OH)
